Laboratory results as given in patent publication US11851389B2, “Cationic lipids for nucleic acid delivery and preparation thereof” (RAMOT AT TEL-AVIV UNIVERSITY LTD., priority 2016, dated 2023).
Entries after “also recorded” stand apart in the source; their conditions may differ.

What was measured:
[1] = tested on: Spheroids of drug resistant human ovarian carcinoma cells (NAR); assay: PLK-1 expression by qPCR in 3D spheroids; format: cell-based; conditions: 72 hr
Protocol: (§1) The mRNA levels of pololike kinase 1 (PLK1 gene) in cells was quantified by real-time PCR, forty eight or Seventy-two hours post-transfection. Total RNA was isolated using the E-Z RNA purification kit (Biological industries, Beit Haemek, Israel), and 1 μg of RNA from each sample was reverse transcribed into cDNA using the High Capacity cDNA Reverse Transcription Kit (Applied Biosystems, Foster City, CA), Quantification of cDNA (5 ng total) was performed on the step one Sequence Detection System (Applied Biosystems, Foster City, CA) using syber green (Applied Biosystems). GAPDH was chosen as a housekeeping gene.
Spheroids of drug resistant human ovarian carcinoma cells (NAR) were treated with LNPs composed of lipid1 and with either siPLK-1 or siLuc s for 72 hr and PLK-1 expression was measured by qPCR. Spheroids are 3D cultures of tumor cells mimicking in vivo tumors.

[2] = tested on: Drug resistant human ovarian carcinoma cells (NAR); assay: PLK-1 expression by qPCR after LNP-siPLK-1 or LNP-siLuc; format: cell-based; conditions: 72 hrs
Protocol: as §1
(§2) Supt1 or NAR or OVCAR cells were placed in tissue culture 12-wells plates at a density of 1×10^5 cells with 1 mL of full medium. LNPs containing different siRNAs (siPLK1 or siCD45 or siLUC) were added to the wells and the concentration was mentioned in figures. Cells were isolated at different time intervals mentioned in the figures and analyzed by either flow cytometry (for siCD45 knockdown), or qPCR for analysis of PLK1 silencing. Apoptosis assay using PI/Annexin was analyzed by flow cytometry in case of siPLK1 induced cell death.
Drug resistant human ovarian carcinoma cells (NAR) were treated with either LNP-siPLK-1 or LNP-siLuc nanoparticles Lipid 1 LNPs (A); Lipid 10&11 LNPs (B) for 72 hrs and PLK-1 expression was measured by qPCR as described in Example 1.

HEK 293 cells = assay: In vitro expression of mKATE-pDNA, flow cytometry; format: cell-based; conditions: 72 hr
Protocol: In vitro expression of pDNA in HEK 293 cells: HEK cells were treated with LNPs composed of either lipid1 or lipid 10 encapsulated with mKATE-pDNA at the concentration of 0.6 nM pDNA. After 72 hr, mKATE expression was analyzed by flow cytometry.
Dose dependent expression of pDNA in HEK 293 cells: HEK cells were treated with LNPs composed of either lipid1 or lipid 10 encapsulated with mKATE-pDNA at different amount pDNA. After 72 hr, mKATE expression was analyzed by flow cytometry.

[3] = LNP size distribution, PDI and ζ potential by dynamic light scattering; format: physicochemical; conditions: LNP-siRNA formulations; for PDI / Size (d · nm): DLS
Protocol: LNPs were prepared by using microfluidic micro mixture (Precision NanoSystems, Vancouver, BC, Canada) as described by Cohen et. al. One volume of lipid mixtures (cationic lipid, DSPC, Chol, DMG-PEG and DSPE-PEG Mal at 50:10:38:1.5:0.5 mole ratio, […] total lipid concentration) in ethanol and three volumes of siRNA (1:16 w/w siRNA to lipid) containing acetate buffer solutions were injected through the micro mixer at a combined flow rate of 2 mL/minute (0.5 mL/min for ethanol and 1.5 mL/min for aqueous buffer). For labeled LNPs, 10% of Alexa-647 labeled siRNA were incorporated. For Cy5 labeled particles, 10% Cy5 labeled non-targeted siRNA was used. The resultant mixture was dialyzed against PBS (pH 7.4) for 16 h to remove ethanol.
LNPs size distribution and ζ potential were determined by dynamic light scattering using a Malvern nano ZS ζ-sizer (Malvern instruments, UK). For size measurements, LNPs were diluted 1:20 in PBS. […] For ζ potential measurements, LNPs were diluted 1:200 in DDW. In some cases, as indicated, size and zeta potential measurements were performed in water.

[4] = tested on: Human ovarian cancer cells (NAR cells); assay: Apoptosis by FACS using PI/Annexin after siPLK1-LNPs; format: cell-based; conditions: 48 hr
Protocol: as §2
Human ovarian cancer cells (NAR cells) were treated with lipid1/siPLK1 nanoparticles for 48 hr at different siRNA concentrations (0.2 μM and 0.1 μM). Apoptotic cells were analyzed by FACS using PI/Annexin. […] Percentage of early apoptotic cells was higher in cells treated with siPLK1-LNPs at 0.2 uM dose of siPLK1.
Human ovarian cancer cells (NAR cells) were treated with either lipid10 or lipid 11/siPLK1 nanoparticles for 48 hr at different siRNA concentrations (0.1 μM and 0.05 μM). siLUC-LNPs used as a negative control. Apoptotic cells were analyzed by FACS using PI/Annexin.

Human T cells SupT1 = assay: In vitro CD45 gene silencing by LNP-siCD45, flow cytometry; format: cell-based; conditions: LNP with siCD45, 48 hrs or 72 hrs, 0.4, 0.2, 0.1 μM siRNA
Protocol: as §2
FIG. 1 depicts in vitro gene silencing effect lipid 1: Human T cells SupT1 were treated with lipid nanoparticle (LNP) comprising of cationic lipid 1 encapsulated siCD45 for 48 hrs (A) or 72 hrs (B) at different siRNA doses (0.4 μM, 0.2 μM, 0.1 μM).

[5] = tested on: Human ovarian carcinoma cells (OVCAR 8); assay: PLK-1 expression by qPCR after LNP-siPLK1 or siLUC; format: cell-based; conditions: OVCAR 8, 72 hr
Protocol: as §1, §2
Human ovarian carcinoma cells (OVCAR 8) were treated with lipid 1 containing LNPs with either siPLK1 or siLUC for 72 hr and PLK-1 expression was measured by qPCR.

[6] = tested on: Human colon carcinoma cells (HCT 116); assay: In vitro expression of LUC pDNA, luminometer; format: cell-based; conditions: HCT 116, LNPs-LUC pDNA with DOPE, Chol, PEG-DMG, 48 hrs
Protocol: Human colon carcinoma cells (HCT 116) were incubated with LNPs-LUC pDNA at different concentrations for 48 hrs. Luciferase expression was measured by luminometer. Lipofectamine 2000 (Lipo 2000) was used as positive control. LNPs were composed of lipid 38 and different amounts of co-lipid DOPE, along with other co-lipids such as Chol, PEG-DMG.

C57BL6/j mice [7] = assay: In vivo delivery of luciferase mRNA to liver, intravenous, bioluminescence imaging; conditions: intravenously, 1 mg/kg body weight
Protocol: LNPs composed of either lipid 54 or lipid 38 formulated with luciferase mRNA were administered intravenously into C57BL6/j mice at 1 mg/kg body weight. After 8 hrs, luciferase expression was measured by bioluminescence imaging system Biospace.
LNPs composed of lipid 38 formulated with luciferase mRNA were administered intravenously into C57BL6/j mice at 1 mg/kg body weight. After 8 hrs and 24 hrs of administration, luciferase expression was measured by bioluminescence imaging system Biospace.

[8] = tested on: Human multiple myeloma suspension cells (U266); assay: Cell viability after PLK1 silencing, XTT assay; format: cell-based; conditions: U266, 48 hrs
Protocol: Human multiple myeloma suspension cells (U266) were incubated with siPLK1-LNPs or siCtl-LNPs composed of either lipid 38 or 55 at different concentrations for 48 hrs. Cell viability affected by PLK1 down regulation was measured by XTT assay.

[9] = tested on: Human multiple myeloma suspension cells (U266); assay: PLK1 expression by qPCR after siPLK1-LNPs; format: cell-based; conditions: U266, 48 hrs, normalized to LNPs-ctl siRNA treated cells
Protocol: as §1
Human multiple myeloma suspension cells (U266) were incubated with LNPs containing siPLK1 at different concentrations for 48 hrs. PLK1 expression was measured by qPCR. PLK1-mRNA levels were normalized to LNPs-ctl siRNA treated cells.

[10] = tested on: Human B-cell lymphoma suspension cells (RPMI-8226); assay: Cell viability after PLK1 silencing, XTT assay; format: cell-based; conditions: RPMI-8226, 48 hrs
Protocol: Human B-cell lymphoma suspension cells (RPMI-8226) were incubated with siPLK1-LNPs or siCtl-LNPs composed of either lipid 38 or 55 at different concentrations for 48 hrs. Cell viability affected by PLK1 down regulation was measured by XTT assay.

[11] = tested on: murine macrophage cells (RAW 264.7); assay: In vitro delivery of luciferase mRNA, luminometer; format: cell-based; conditions: 18 hrs
Protocol: Hard to transfect murine macrophage cells (RAW 264.7) were treated with LNPs composed of either Lipid38 or Lipid 54 and formulated with luciferase mRNA at different amounts of mRNA. After 18 hrs luciferase expression was measured by luminometer.

[12] = tested on: Human multiple myeloma suspension cells (MM1); assay: Cell viability after PLK1 silencing, XTT assay; format: cell-based; conditions: MM1, 48 hrs
Protocol: Human multiple myeloma suspension cells (MM1) were incubated with siPLK1-LNPs or siCtl-LNPs composed of either lipid 38 or 55 at different concentrations for 48 hrs. Cell viability affected by PLK1 down regulation was measured by XTT assay.

C57BL6/j mice [13] = assay: In vivo delivery of luciferase mRNA to muscle cells, intramuscular, bioluminescence imaging; conditions: i.m., 1 mg/kg body weight
Protocol: LNPs composed of either lipid 54 or lipid 38 formulated with luciferase mRNA were administered intramuscularly in to C57BL6/j mice at 1 mg/kg body weight. Luciferase expression was measured by bioluminescence imaging system Biospace: (a) after 8 hrs of i.m. administration; and (b) after 24 hrs. […] The expression was still high 24 hrs after the administration of LNPs indicating the efficiency of these lipids in delivering mRNA in vivo.

[14] = tested on: Human colon carcinoma cells (HCT116); assay: Toxicity of LNPs with ctl siRNA, XTT cell viability; format: cell-based; conditions: 72 hrs
Protocol: Human colon carcinoma cells (HCT116) were incubated with LNPs with ctl siRNA (see methods) for 72 hrs. The cell viability was measured by XTT assay. Toxicity of LNPs composed of either lipid 38 or lipid 55 is compared with gold standard LNPs composed of Dlin-MC3-DMA.

Cynomolgus monkeys = assay: Liver toxicity (serum ALT, AST) in non-human primate; format: in vivo; conditions: single i.v. 0.5 mg/kg, particles with siNC5, serum at 1 and 24 h, compared with MC3
Protocol: Cynomolgus monkeys (n=2 per group, males) received a single I.v. administration (1 ml/kg) of (0.5 mg/kg) of MC3 particles with siNC5 and lipid 38-based particles with siNC5 (0.5 mg/Kg). At 1 and 24 h post administration serum was collected at and analyzed for ALT, AST (by Roch Cobra Auto analyzer). Each data point is an average of 2 animals±SEM.

CCCCC/C=C\C/C=C\CCCCCCCCNN(CCCCCCCC/C=C\C/C=C\CCCCC)CCN(C)C [Lipid 1, 2-(1,2-di((9Z,12Z)-octadeca-9,12-dien-1-yl)hydrazinyl)-N,N-dimethylethan-1-amine]
PLK-1 expression, siPLK1-LNPs [1]: significantly downregulating PLK1 gene compared to siLUC-LNPs | PLK-1 expression, LNP-siLuc control siRNA [2]: did not affect plk1 expression | PLK-1 expression, LNP-siPLK-1 [2]: downregulating the proto-oncogene PLK1 efficiently | mKATE expression (HEK 293 cells; HEK 293, 0.6 nM pDNA): mKATE expression was observed | Dose dependence of mKATE expression (HEK 293 cells; HEK 293, different amount pDNA): did not show any dose dependent expression | Zeta-potential (mV) [3]: 18.5 mV | PDI [3]: 0.14 | Size (d · nm) [3]: 45.1 nm | Percentage of early apoptotic cells ([4]; 0.2 uM dose of siPLK1): higher | Apoptosis induced by siPLK1-LNPs ([4]; PI/Annexin FACS): inducing apoptosis in cancer cell | Effect on cell cycle of siLUC-LNPs ([4]; control siRNA): no effect on cell cycle | CD45 gene down-regulation (Human T cells SupT1): down-regulate CD45 gene in hard to transfect T cells | PLK-1 expression, siPLK1-LNPs [5]: efficiently downregulating PLK1 gene compared to dlin-mc3-dma containing LNPs

CCCCC/C=C\C/C=C\CCCCCCCCN(CCCCCCCC/C=C\C/C=C\CCCCC)CCOC(=O)CCCN(C)C [Lipid 38]
Delivery of pDNA to the nucleus [6]: efficiently delivering pDNA to the nucleus | Luciferase expression in liver, 8 hrs versus 24 hrs (C57BL6/j mice [7]): high after 8 hrs compared to after 24 hrs | Luciferase expression in liver (C57BL6/j mice [7]; 8 hrs, 1 mg/kg): significant amount of luciferase in mouse liver compared to LNPs composed of lipid 54; also recorded: significant amount of luciferase expression was observed in liver | Cell viability, siCtl-LNPs [8]: no effect on the cell viability | Cell viability, siPLK1-LNPs [8]: more effect on cell viability compared to Dlin-MC3-DMA LNPs | PLK1 expression, siPLK1-LNPs [9]: efficiently down regulate | Cell viability, siCtl-LNPs [10]: no effect on the cell viability | Cell viability, siPLK1-LNPs [10]: dose dependent effect on B-cell lymphoma cancer cell viability | Dose dependence of luciferase expression ([11]; RAW 264.7, different amounts of mRNA): dose dependent expression was observed | Luciferase expression ([11]; RAW 264.7, luciferase mRNA LNPs): efficiently compared to lipid 54-LNPs | Zeta-potential (mV) [3]: 6.7 mV | PDI [3]: 0.08 | Size (d · nm) [3]: 59.0 nm | Cell viability, siCtl-LNPs [12]: no effect on the cell viability | Cell viability, siPLK1-LNPs [12]: dose dependent effect on multiple myeloma cancer cell viability | Luciferase expression after 8 hrs (C57BL6/j mice [13]; 8 hrs): significant amounts of luciferase | Luciferase expression after 24 hrs (C57BL6/j mice [13]; 24 hrs): still high | Toxicity of LNPs (cell viability) [14]: less toxic than LNPs composed of Dlin-MC3-DMA | Liver toxicity (ALT, AST) (Cynomolgus monkeys): No liver toxicity
